{"source": "patent US7202085B2", "about": "“Control of gene expression in eukaryotic cells” (Calgene LLC, priority 1999, dated 2007)", "key": {"VP16-TraR": {"system": "VP16-TraR", "experiment": "Transient GUS reporter assay in carrot protoplasts with VP16-TraR effector and tra box reporter", "format": "cell-based, Agrobacterium tumefaciens", "settings": "Table 8: TraA8(4X) +TraR", "text": "Carrot protoplasts were transfected with the TraA8 (4×)-GUS reporter construct with the 35S-VP16-TraR activator gene and tested for GUS induction by application of wild type AHL and the various AHL analogs described in Example 8."}, "tra box-GUS reporter": {"system": "tra box-GUS reporter", "method": "Plasmids for transfection were isolated and purified using Megaprep plasmid DNA isolation kit (Qiagen). Carrot protoplasts for transfections were prepared from carrot cell suspension culture and transfected with purified DNA as described (Ulmasov et al., Plant Cell 7:1611–1623, 1995). Briefly, 10 μg of the reporter plasmid and 5 μg of the effector plasmid were incubated with 10^6 protoplasts for five minutes at the room temperature in the presence of polyethylene glycol-calcium solution. After diluting approximately 10-fold with the culture medium, the protoplasts were incubated in the dark for 36 hours either in the presence or absence of the inducer 3-oxohexanoyl-homoserine lactone (OHHL, racemic mixture of the L- and D-isomers, purchased from Sigma Chemical Co., St Louis, Mo.). After incubation, protoplasts were collected by low-speed centrifugation, lysed and the level of GUS activity was measured using fluorometric GUS assay (Jefferson et al., EMBO J. 6:3901–3907, 1987).\nTen μg of the reporter plasmid (pMON53031), and indicated amount of the 35S effector plasmid per reaction was used for transfection in triplicate. […] The “− inducer” and “+ inducer” columns are averages of the GUS activities.\nThese constructs were tested for background GUS activity and TraR responsiveness in carrot protoplasts."}, "[1]": {"settings": "Table 5 lane 1: tra box (6X), cl.7 alone (35S-CAT), 12.5 μM C8-AHL"}, "[2]": {"settings": "Table 5 lane 3: traA1(3X), cl.35 alone (35S-CAT), 12.5 μM C8-AHL"}, "[3]": {"settings": "Table 5 lane 5: traA2(3X), cl.43 alone (35S-CAT), 12.5 μM C8-AHL"}, "[4]": {"settings": "Table 5 lane 7: traA3(3X), cl.4 alone (35S-CAT), 12.5 μM C8-AHL"}, "[5]": {"settings": "Table 5 lane 9: traA4(3X), cl.23 alone (35S-CAT), 12.5 μM C8-AHL"}, "[6]": {"settings": "Table 5 lane 11: traA5(3X), cl.2 alone (35S-CAT), 12.5 μM C8-AHL"}, "[7]": {"settings": "Table 5 lane 13: traA6(3X), cl.21 alone (35S-CAT), 12.5 μM C8-AHL"}, "[8]": {"settings": "Table 5 lane 15: traA7(3X), cl.15 alone (35S-CAT), 12.5 μM C8-AHL"}, "[9]": {"settings": "Table 5 lane 17: traA8(3X), cl.4 alone (35S-CAT), 12.5 μM C8-AHL"}, "[10]": {"settings": "Table 5 lane 19: traA9(3X), cl.8 alone (35S-CAT), 12.5 μM C8-AHL"}, "[11]": {"settings": "Table 5 lane 21: min-46GUS, 12.5 μM C8-AHL"}, "[12]": {"settings": "Table 6 lane 1: Tra box(3X), cl.5 + CAT, 12.5 μM C8-AHL"}, "[13]": {"settings": "Table 6 lane 3: TraA1(3X), cl.35 + CAT, 12.5 μM C8-AHL"}, "[14]": {"settings": "Table 6 lane 5: TraA2(3X), cl.43 + CAT, 12.5 μM C8-AHL"}, "[15]": {"settings": "Table 6 lane 7: TraA3(3X), cl.4 + CAT, 12.5 μM C8-AHL"}, "[16]": {"settings": "Table 6 lane 9: TraA4(3X), cl.23 + CAT, 12.5 μM C8-AHL"}, "[17]": {"settings": "Table 6 lane 11: TraA5(3X), cl.2 + CAT, 12.5 μM C8-AHL"}, "[18]": {"settings": "Table 6 lane 15: TraA7(3X), cl.15 + CAT, 12.5 μM C8-AHL"}, "[19]": {"settings": "Table 6 lane 17: TraA8(3X), cl.4 + CAT, 12.5 μM C8-AHL"}, "[20]": {"settings": "Table 6 lane 19: TraA9(3X), cl.8 + CAT, 12.5 μM C8-AHL"}, "[21]": {"settings": "Table 6 lane 21: TraA10(3X), cl.17 + CAT, 12.5 μM C8-AHL"}, "[22]": {"settings": "Table 6 lane 23: TraA-1(3X), cl.14 + CAT, 12.5 μM C8-AHL"}, "[23]": {"settings": "Table 6 lane 25: min35S-46-GUS, 12.5 μM C8-AHL"}, "[24]": {"settings": "Table 7 lane 1: S2-46GUS, 12.5 μM C8-AHL"}, "[25]": {"settings": "Table 7 lane 2: TraA8(4X), cl.16 + CAT, 12.5 μM C8-AHL"}}, "note": "“And” between values parts separate entries of the source, which are not always exact repeats. Equal values may be shown once. Read-outs that look alike come from different tables or passages of the source.", "data": [{"compound": "CCCCCC(=O)CC(=O)N[C@H]1CCOC1=O", "note": "[C8-HSL, 3-oxooctanoyl-L-homoserine lactone]", "values": [{"measurement": "1, 2, 3 (replicate GUS activities at the lower concentration)", "setting": "VP16-TraR; 5 μM", "value": "2820.7 and 3124.7 and 3110.7"}, {"measurement": "4, 5, 6 (replicate GUS activities at the higher concentration)", "setting": "VP16-TraR; 12.5 μM", "value": "4386.9 and 4031.2 and 4010.3"}, {"measurement": "1, 2, 3 (replicate GUS activities at the lower concentration)", "setting": "VP16-TraR; 25 μM", "value": "8183.1 and 7890.1 and 6855.5"}, {"measurement": "4, 5, 6 (replicate GUS activities at the higher concentration)", "setting": "VP16-TraR; 75 μM", "value": "8036.8 and 7647.1 and 8243.2"}, {"measurement": "+inducer (average GUS activity)", "setting": "tra box-GUS reporter; Table 4: min35S-GUS, 25 [i M OOHL]", "value": 6.1}, {"measurement": "+inducer (average GUS activity)", "setting": "tra box-GUS reporter; Table 4: pMON53031 alone, 25 [i M OOHL]", "value": 265}, {"measurement": "4, 5, 6 (replicate GUS activities, +inducer)", "setting": "tra box-GUS reporter; [1]", "value": "569.8 and 647.3 and 643.6"}, {"measurement": "+inducer (average GUS activity)", "setting": "tra box-GUS reporter; [1]", "value": 620.2}, {"measurement": "4, 5, 6 (replicate GUS activities, +inducer)", "setting": "tra box-GUS reporter; [2]", "value": "110.8 and 118.5 and 145.2"}, {"measurement": "+inducer (average GUS activity)", "setting": "tra box-GUS reporter; [2]", "value": 124.8}, {"measurement": "4, 5, 6 (replicate GUS activities, +inducer)", "setting": "tra box-GUS reporter; [3]", "value": "240.6 and 221.1 and 229.7"}, {"measurement": "+inducer (average GUS activity)", "setting": "tra box-GUS reporter; [3]", "value": 230.5}, {"measurement": "4, 5, 6 (replicate GUS activities, +inducer)", "setting": "tra box-GUS reporter; [4]", "value": "89.3 and 94.4 and 103.2"}, {"measurement": "+inducer (average GUS activity)", "setting": "tra box-GUS reporter; [4]", "value": 95.6}, {"measurement": "4, 5, 6 (replicate GUS activities, +inducer)", "setting": "tra box-GUS reporter; [5]", "value": "177.7 and 196.0 and 195.0"}, {"measurement": "+inducer (average GUS activity)", "setting": "tra box-GUS reporter; [5]", "value": 189.6}, {"measurement": "4, 5, 6 (replicate GUS activities, +inducer)", "setting": "tra box-GUS reporter; [6]", "value": "20.6 and 16.2 and 13.1"}, {"measurement": "+inducer (average GUS activity)", "setting": "tra box-GUS reporter; [6]", "value": 16.6}, {"measurement": "4, 5, 6 (replicate GUS activities, +inducer)", "setting": "tra box-GUS reporter; [7]", "value": "73.6 and 64.2 and 76.1"}, {"measurement": "+inducer (average GUS activity)", "setting": "tra box-GUS reporter; [7]", "value": 71.3}, {"measurement": "4, 5, 6 (replicate GUS activities, +inducer)", "setting": "tra box-GUS reporter; [8]", "value": "215.1 and 200.0 and 238.6"}, {"measurement": "+inducer (average GUS activity)", "setting": "tra box-GUS reporter; [8]", "value": 217.9}, {"measurement": "4, 5, 6 (replicate GUS activities, +inducer)", "setting": "tra box-GUS reporter; [9]", "value": "36.3 and 43.3 and 39.8"}, {"measurement": "+inducer (average GUS activity)", "setting": "tra box-GUS reporter; [9]", "value": 39.8}, {"measurement": "4, 5, 6 (replicate GUS activities, +inducer)", "setting": "tra box-GUS reporter; [10]", "value": "32.4 and 35.6 and 36.2"}, {"measurement": "+inducer (average GUS activity)", "setting": "tra box-GUS reporter; [10]", "value": 34.7}, {"measurement": "4, 5, 6 (replicate GUS activities, +inducer)", "setting": "tra box-GUS reporter; [11]", "value": "145.4 and 124.2 and 116.0"}, {"measurement": "+inducer (average GUS activity)", "setting": "tra box-GUS reporter; [11]", "value": 128.5}, {"measurement": "4, 5, 6 (replicate GUS activities, +inducer)", "setting": "tra box-GUS reporter; [12]", "value": "264.6 and 251.9 and 230.9"}, {"measurement": "+inducer (average GUS activity)", "setting": "tra box-GUS reporter; [12]", "value": 249.1}, {"measurement": "4, 5, 6 (replicate GUS activities, +inducer)", "setting": "tra box-GUS reporter; [13]", "value": "70.7 and 54.2 and 42.8"}, {"measurement": "+inducer (average GUS activity)", "setting": "tra box-GUS reporter; [13]", "value": 55.9}, {"measurement": "4, 5, 6 (replicate GUS activities, +inducer)", "setting": "tra box-GUS reporter; [14]", "value": "125.2 and 103.0 and 110.2"}, {"measurement": "+inducer (average GUS activity)", "setting": "tra box-GUS reporter; [14]", "value": 112.8}, {"measurement": "4, 5, 6 (replicate GUS activities, +inducer)", "setting": "tra box-GUS reporter; [15]", "value": "59.2 and 62.8 and 46.4"}, {"measurement": "+inducer (average GUS activity)", "setting": "tra box-GUS reporter; [15]", "value": 56.1}, {"measurement": "4, 5, 6 (replicate GUS activities, +inducer)", "setting": "tra box-GUS reporter; [16]", "value": "87.9 and 86.4 and 85.9"}, {"measurement": "+inducer (average GUS activity)", "setting": "tra box-GUS reporter; [16]", "value": 86.7}, {"measurement": "4, 5, 6 (replicate GUS activities, +inducer)", "setting": "tra box-GUS reporter; [17]", "value": "72.5 and 68.2 and 90.9"}, {"measurement": "+inducer (average GUS activity)", "setting": "tra box-GUS reporter; [17]", "value": 77.2}, {"measurement": "+inducer (average GUS activity)", "setting": "tra box-GUS reporter; Table 6 lane 13: TraA6(3X), cl.21 + CAT, 12.5 μM C8-AHL", "value": 3.9}, {"measurement": "4, 5, 6 (replicate GUS activities, +inducer)", "setting": "tra box-GUS reporter; [18]", "value": "241.3 and 197.1 and 268.5"}, {"measurement": "+inducer (average GUS activity)", "setting": "tra box-GUS reporter; [18]", "value": 235.6}, {"measurement": "4, 5, 6 (replicate GUS activities, +inducer)", "setting": "tra box-GUS reporter; [19]", "value": "121.2 and 148.8 and 115.9"}, {"measurement": "+inducer (average GUS activity)", "setting": "tra box-GUS reporter; [19]", "value": 128.7}, {"measurement": "4, 5, 6 (replicate GUS activities, +inducer)", "setting": "tra box-GUS reporter; [20]", "value": "97.4 and 96.7 and 89.6"}, {"measurement": "+inducer (average GUS activity)", "setting": "tra box-GUS reporter; [20]", "value": 94.6}, {"measurement": "4, 5, 6 (replicate GUS activities, +inducer)", "setting": "tra box-GUS reporter; [21]", "value": "47.1 and 44.2 and 44.1"}, {"measurement": "+inducer (average GUS activity)", "setting": "tra box-GUS reporter; [21]", "value": 45.1}, {"measurement": "4, 5, 6 (replicate GUS activities, +inducer)", "setting": "tra box-GUS reporter; [22]", "value": "19.7 and 23.6 and 17.0"}, {"measurement": "+inducer (average GUS activity)", "setting": "tra box-GUS reporter; [22]", "value": 20.1}, {"measurement": "4, 5, 6 (replicate GUS activities, +inducer)", "setting": "tra box-GUS reporter; [23]", "value": "39.6 and 32.1 and 44.5"}, {"measurement": "+inducer (average GUS activity)", "setting": "tra box-GUS reporter; [23]", "value": 38.7}, {"measurement": "4, 5, 6 (replicate GUS activities, +inducer)", "setting": "tra box-GUS reporter; [24]", "value": "27.2 and 22.7 and 17.4"}, {"measurement": "+inducer (average GUS activity)", "setting": "tra box-GUS reporter; [24]", "value": 22.4}, {"measurement": "4, 5, 6 (replicate GUS activities, +inducer)", "setting": "tra box-GUS reporter; [25]", "value": "20.3 and 25.1 and 18.7"}, {"measurement": "+inducer (average GUS activity)", "setting": "tra box-GUS reporter; [25]", "value": 21.3}]}]}
